Experimental data reported in patent publication US8951560B2, “Isoflavone nanoparticles and use thereof” (DSM IP Assets B.V., priority 2005, dated 2015).

Columns and labels:
[1] = Genistein particle size by laser diffraction technique (Mastersizer 2000); assay type: physicochemical
[2] = "swing" test (changing temperature test) of genistein-containing emulsions (Example 10); assay type: physicochemical; conditions: FIG. 7, comparative: emulsions with example 7 genistein after dry grinding in a Jet mill, 0.3%, 0.5%, 0.1%; ten sequences 5° C./43° C.
Method: To force the crystallization in a disperse system, a test was used in which the temperature is changed over a self-defined timeframe and in self-defined sequences. The test is called “swing” test (changing temperature test). The purpose of this test is to dissolve small particles at the higher temperature and to force re-crystallization at lower temperature. […] The following formulations were used for the “swing” test: […]
Oil- and water phase (o+w) were separately heated up to 70° C. (±5° C.) and were added together. The thickening agent (t) was added under moderate agitation. The mixture was homogenized for 30 seconds at 24,000 RPM by means of an Ultra-Turrax T25 homogenizer. The emulsion was cooled down slowly to 45° C.±5° C. under moderate stirring (horseshoe mixer, 120 RPM). At this temperature the pH value was adjusted to pH 6.5-7.0 by adding base (b). Genistein (g) was added to the still fluid emulsion and was incorporated by homogenizing again for 30 sec. 24,000 RPM by means of an Ultra-Turrax T25 homogenizer. The formulation was cooled down to 25° C.±5° C. under moderate stirring (horseshoe mixer, 120 RPM). […]
FIGS. 5 to 7 show the results of the “swing” test. […] The following genistein samples and concentrations were employed and the emulsions were measured immediately after preparation and after subjecting the samples to ten sequences of the “swing” test: […]

[3] = Example 1, after homogenization (42 passes) and spray-drying, powder re-dispersed in water
[4] = Example 1, after homogenization (42 passes), 1500 bar, with starch sodium octenyl succinate, aqueous suspension
[5] = Example 1, before homogenization
[6] = Example 2, after homogenization (40 passes), 1500 bar, water only, no carrier
[7] = Example 2, after homogenization (42 passes) and spray-drying, powder re-dispersed in water
[8] = Example 2, after homogenization (42 passes), starch sodium octenyl succinate solution added after 40th pass
[9] = Example 2, before homogenization
[10] = Example 3, after homogenization (40 passes), 1500 bar, water only, no carrier
[11] = Example 3, after homogenization (42 passes) and spray-drying, powder re-dispersed in water
[12] = Example 3, after homogenization (42 passes), starch sodium octenyl succinate solution added after 40th pass
[13] = Example 3, before homogenization
[14] = Example 4, after homogenization (20 passes), 700 bar, water only, no carrier, about 20% solid
[15] = Example 4, before homogenization
[16] = Example 5, Table XI, after homogenization (42 passes) and spray-drying as headed, maltodextrin solution added after 40th pass
[17] = Example 5, Table XII, after homogenization (42 passes) and spray-drying, maltodextrin carrier, powder re-dispersed in water
[18] = Example 5, after homogenization (20 passes), 1500 bar, water only, no carrier
[19] = Example 5, before homogenization
[20] = Example 6, after homogenization (11 passages) in agitated bead mill, with starch sodium octenyl succinate
[21] = Example 6, before homogenization
[22] = Example 7, Table XIV, before milling and homogenization
[23] = Example 7, Table XV, before milling and homogenization
[24] = Example 7, after milling (Jet mill) and homogenization (12 times, 700 bar) with starch sodium octenyl succinate
[25] = Example 7, after milling, homogenization and spray drying

Compound: O=c1c(-c2ccc(O)cc2)coc2cc(O)cc(O)c12 [Genistein, 4′,5,7-trihydroxyisoflavone]
- Average particle size D[3, 2] [1, 3]: 0.14 microns
- Average particle size D[4, 3] [1, 3]: 0.83 microns
- Genistein particle size D (v, 0.1) [1, 3]: 0.07 microns
- Genistein particle size D (v, 0.5) [1, 3]: 0.16 microns
- Genistein particle size D (v, 0.9) [1, 3]: 2.86 microns
- Average particle size D[3, 2] [1, 4]: 0.15 microns
- Average particle size D[4, 3] [1, 4]: 0.97 microns
- Genistein particle size D (v, 0.1) [1, 4]: 0.07 microns
- Genistein particle size D (v, 0.5) [1, 4]: 0.17 microns
- Genistein particle size D (v, 0.9) [1, 4]: 3.65 microns
- Average particle size D[3, 2] [1, 5]: 23.1 microns
- Average particle size D[4, 3] [1, 5]: 48.5 microns
- Genistein particle size D (v, 0.1) [1, 5]: 17.1 microns
- Genistein particle size D (v, 0.5) [1, 5]: 41.9 microns
- Genistein particle size D (v, 0.9) [1, 5]: 91.0 microns
- Average particle size D[3, 2] [1, 6]: 0.14 microns
- Average particle size D[4, 3] [1, 6]: 0.76 microns
- Genistein particle size D (v, 0.1) [1, 6]: 0.07 microns
- Genistein particle size D (v, 0.5) [1, 6]: 0.16 microns
- Genistein particle size D (v, 0.9) [1, 6]: 2.42 microns
- Average particle size D[3, 2] [1, 7]: 0.14 microns
- Average particle size D[4, 3] [1, 7]: 0.55 microns
- Genistein particle size D (v, 0.1) [1, 7]: 0.07 microns
- Genistein particle size D (v, 0.5) [1, 7]: 0.15 microns
- Genistein particle size D (v, 0.9) [1, 7]: 1.14 microns
- Average particle size D[3, 2] [1, 8]: 0.14 microns
- Average particle size D[4, 3] [1, 8]: 0.41 microns
- Genistein particle size D (v, 0.1) [1, 8]: 0.07 microns
- Genistein particle size D (v, 0.5) [1, 8]: 0.16 microns
- Genistein particle size D (v, 0.9) [1, 8]: 0.93 microns
- Average particle size D[3, 2] [1, 9]: 23.1 microns
- Average particle size D[4, 3] [1, 9]: 48.5 microns
- Genistein particle size D (v, 0.1) [1, 9]: 17.1 microns
- Genistein particle size D (v, 0.5) [1, 9]: 41.9 microns
- Genistein particle size D (v, 0.9) [1, 9]: 91.0 microns
- Average particle size D[3, 2] [1, 10]: 0.14 microns
- Average particle size D[4, 3] [1, 10]: 0.76 microns
- Genistein particle size D (v, 0.1) [1, 10]: 0.07 microns
- Genistein particle size D (v, 0.5) [1, 10]: 0.16 microns
- Genistein particle size D (v, 0.9) [1, 10]: 2.00 microns
- Average particle size D[3,2] (surface mean diameter) [1, 11]: 0.14 microns
- Average particle size D[4, 3] [1, 11]: 0.43 microns
- Genistein particle size D (v, 0.1) [1, 11]: 0.07 microns
- Genistein particle size D (v, 0.5) [1, 11]: 0.16 microns
- Genistein particle size D (v, 0.9) [1, 11]: 0.97 microns
- Average particle size D[3, 2] [1, 12]: 0.14 microns
- Average particle size D[4, 3] [1, 12]: 0.40 microns
- Genistein particle size D (v, 0.1) [1, 12]: 0.07 microns
- Genistein particle size D (v, 0.5) [1, 12]: 0.16 microns
- Genistein particle size D (v, 0.9) [1, 12]: 0.91 microns
- Average particle size D[3, 2] [1, 13]: 23.1 microns
- Average particle size D[4, 3] [1, 13]: 48.5 microns
- Genistein particle size D (v, 0.1) [1, 13]: 17.1 microns
- Genistein particle size D (v, 0.5) [1, 13]: 41.9 microns
- Genistein particle size D (v, 0.9) [1, 13]: 91.0 microns
- Average particle size D[3, 2] [1, 14]: 0.13 microns
- Average particle size D[4, 3] [1, 14]: 0.83 microns
- Genistein particle size D (v, 0.1) [1, 14]: 0.07 microns
- Genistein particle size D (v, 0.5) [1, 14]: 0.15 microns
- Genistein particle size D (v, 0.9) [1, 14]: 2.62 microns
- Average particle size D[3, 2] [1, 15]: 23.1 microns
- Average particle size D[4, 3] [1, 15]: 48.5 microns
- Genistein particle size D (v, 0.1) [1, 15]: 17.1 microns
- Genistein particle size D (v, 0.5) [1, 15]: 41.9 microns
- Genistein particle size D (v, 0.9) [1, 15]: 91.0 microns
- Average particle size D[3, 2] [1, 16]: 0.14 microns
- Average particle size D[4, 3] [1, 16]: 0.41 microns
- Genistein particle size D (v, 0.1) [1, 16]: 0.07 microns
- Genistein particle size D (v, 0.5) [1, 16]: 0.16 microns
- Genistein particle size D (v, 0.9) [1, 16]: 0.93 microns
- Average particle size D[3, 2] [1, 17]: 0.13 microns
- Average particle size D[4, 3] [1, 17]: 0.41 microns
- Genistein particle size D (v, 0.1) [1, 17]: 0.07 microns
- Genistein particle size D (v, 0.5) [1, 17]: 0.15 microns
- Genistein particle size D (v, 0.9) [1, 17]: 0.93 microns
- Average particle size D[3,2] (surface mean diameter) [1, 18]: 0.14 microns
- Average particle size D[4, 3] [1, 18]: 0.42 microns
- Genistein particle size D (v, 0.1) [1, 18]: 0.07 microns
- Genistein particle size D (v, 0.5) [1, 18]: 0.16 microns
- Genistein particle size D (v, 0.9) [1, 18]: 0.92 microns
- Average particle size D[3,2] (surface mean diameter) [1, 19]: 23.1 microns
- Average particle size D[4, 3] [1, 19]: 48.5 microns
- Genistein particle size D (v, 0.1) [1, 19]: 17.8 microns
- Genistein particle size D (v, 0.5) [1, 19]: 41.4 microns
- Genistein particle size D (v, 0.9) [1, 19]: 90.2 microns
- Average particle size D[4, 3] [1, 20]: 0.23 microns
- Genistein particle size D (v, 0.1) [1, 20]: 0.07 microns
- Genistein particle size D (v, 0.5) [1, 20]: 0.16 microns
- Genistein particle size D (v, 0.9) [1, 20]: 0.45 microns
- Average particle size D[4, 3] [1, 21]: 48.5 microns
- Genistein particle size D (v, 0.1) [1, 21]: 17.8 microns
- Genistein particle size D (v, 0.5) [1, 21]: 41.4 microns
- Genistein particle size D (v, 0.9) [1, 21]: 90.2 microns
- Average particle size D[4, 3] [1, 22]: 48.5 microns
- Genistein particle size D (v, 0.1) [1, 22]: 17.8 microns
- Genistein particle size D (v, 0.5) [1, 22]: 41.4 microns
- Genistein particle size D (v, 0.9) [1, 22]: 90.2 microns
- Average particle size D[4, 3] [1, 23]: 48.5 microns
- Genistein particle size D (v, 0.1) [1, 23]: 17.8 microns
- Genistein particle size D (v, 0.5) [1, 23]: 41.4 microns
- Genistein particle size D (v, 0.9) [1, 23]: 90.2 microns
- Average particle size D[4, 3] [1, 24]: 0.53 microns
- Genistein particle size D (v, 0.1) [1, 24]: 0.07 microns
- Genistein particle size D (v, 0.5) [1, 24]: 0.18 microns
- Genistein particle size D (v, 0.9) [1, 24]: 1.38 microns
- Average particle size D[4, 3] [1, 25]: 0.65 microns
- Genistein particle size D (v, 0.1) [1, 25]: 0.08 microns
- Genistein particle size D (v, 0.5) [1, 25]: 0.19 microns
- Genistein particle size D (v, 0.9) [1, 25]: 1.84 microns
- Particle size change in the "swing" test [2]: Huge crystals are formed
